Among the data in patent US20160095843A1, “PYRAZOLOPYRROLIDINE DERIVATIVES AND THEIR USE IN THE TREATMENT OF DISEASE” (NOVARTIS AG, priority 2013, published 2016) are GI50, IC (TGI) and IC50 values, retold here.

Each structure is given as a SMILES string. Like-named read-outs stand apart in the source and are kept apart here. A value given as a limit tells only on which side of the number the result lay.

The test system of one assay is THP-1 cells. Put plainly: Cell growth inhibition assay (CellTiter-Glo), THP-1. The following applies: Homo sapiens. Format: cell-based. The method, boiled down:
(§1)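 Cellular ATP (CellTiter-Glo luminescence) measured after 4 days at 37° C., 5% CO2 of compound exposure, top concentration 10 μM in 3-fold steps, 0.1% DMSO. Readings corrected for no-cell background and a day-0 plate, normalised to vehicle and medium wells; half-maximal and total growth inhibition from four-parameter curves.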
(Cellular ATP, detected with luciferase, serves as a proxy for viable cell number.)

A further assay deals with K-562 cells. Put plainly: Cell growth inhibition assay (CellTiter-Glo), K-562. The class given is cell-based, human. The method, boiled down: as §1
Another assay deals with MV-4-11 cells. The assay is described as follows: Cell growth inhibition assay (CellTiter-Glo), MV-4-11. The following applies: Homo sapiens, MV4-11. Format: cell-based. The method, boiled down: as §1
For assay [1], the target named is T1, nuclear BRD4-NUT foci in HCC2494 NUT midline carcinoma cells (Homo sapiens, UniProt O60885+Q86Y26).
T1 construct: HCC2494 NUT midline carcinoma cells (expressing BRD4-NUT-fusion)
Put plainly: Nut-foci formation assay. Format: cell-based. Particulars: 24 hours, NUT-foci per nucleus, read-out: HCS Brd4-NUT IC50. The protocol:
HCC2494 NUT midline carcinoma cells (expressing BRD4-NUT-fusion) were obtained from the University of Texas Southwestern and cultured in RPMI-1640 medium containing 10% Foetal Calf Serum at 37° C. in a humidified 5% CO2 incubator.
Compound-mediated inhibition of BRD4 activity was monitored by quantification of the number and intensity of nuclear BRD4-NUT foci using automated immunofluorescence microscopy. Briefly, 5000 cells in 20 μL fresh medium were seeded into Poly-D-Lysine-precoated 384-well plates and incubated overnight at 37° C. and 5% CO2, followed by addition of 5 μl medium containing compound dilutions at 5-fold their final intended concentration. Dose-response effects were assessed by 3-fold serial dilutions of the test compound, starting at 10 μM. […] Assay plates were imaged using the appropriate filter sets on the Cellomics VTi automated fluorescence microscopy platform (ThermoFisher Scientific) and the population average of the number of NUT-foci per nucleus is quantified using the Cellomics Spot Detection BioApplication image analysis algorithm (ThermoFisher Scientific). The effect of a particular test compound concentration on NUT-foci number and intensity is expressed as percentage of the value obtained for cells treated with vehicle only (DMSO, 0.1% final concentration), which was set as 100. […]

For a further assay, the target named is T2, BRD2 (Homo sapiens, UniProt P25440).
T2 construct: 45 nM His-Brd2(60-472) or 45 nM His-Brd3(20-477)
T2 sequence (P25440 60-472): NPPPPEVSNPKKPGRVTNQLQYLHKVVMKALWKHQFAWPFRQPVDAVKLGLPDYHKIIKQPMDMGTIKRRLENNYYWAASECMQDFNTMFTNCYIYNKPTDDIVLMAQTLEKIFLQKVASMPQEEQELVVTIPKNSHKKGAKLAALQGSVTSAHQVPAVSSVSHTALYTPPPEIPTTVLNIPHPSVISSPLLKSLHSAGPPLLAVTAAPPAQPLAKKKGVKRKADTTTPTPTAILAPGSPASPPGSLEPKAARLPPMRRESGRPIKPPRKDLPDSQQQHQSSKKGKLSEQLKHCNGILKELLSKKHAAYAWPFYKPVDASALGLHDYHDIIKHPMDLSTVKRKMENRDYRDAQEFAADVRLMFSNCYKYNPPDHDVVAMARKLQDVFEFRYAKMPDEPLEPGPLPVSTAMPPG
Put plainly: TR-FRET in-vitro binding assay for BRD2. The following applies: Biochemical IC50 values, His-Brd2(60-472). As to the method: (§2) TR-FRET In-Vitro Binding Assays for BRD2, BRD3, and BRD4:
(§3) All assays were performed in 384-well microtiter plates. Each assay plate contained 8-point serial dilutions for 40 test compounds, plus 16 high- and 16 low controls. Liquid handling and incubation steps were done on an Innovadyne Nanodrop Express equipped with a robotic arm (Thermo CatX, Perkin Elmer/Caliper Twister II) and an incubator (Liconic STX40, Thermo Cytomat 2C450). The assay plates were prepared by addition of 50n1 per well of compound solution in 90% DMSO HummingBird nanodispenser (Zinsser Analytic). […] Reactions were incubated at 30° C. for 35 minutes. […] After 35 minutes incubation at 30° C., plates were measured in a Perkin Elmer EnVision multilabel reader.
(§4) Preparation of Compound Dilutions
(§5) Test compounds were dissolved in DMSO (10 mM) and transferred into 1.4 mL flat bottom or V-shaped Matrix tubes carrying a unique 2D matrix. The stock solutions were stored at […] if not used immediately. For the test procedure the vials were defrosted and identified by a scanner whereby a working sheet was generated that guided the subsequent working steps. Compound dilutions were made in 96 well plates. This format enabled the assay of maximally 40 individual test compounds at 8 concentrations (single points) including 4 reference compounds, if desired (known BET inhibitors from the prior art, for this and other assays of the type disclosed herein). The dilution protocol included the production of “pre-dilution plates”, “master plates” and “assay plates”.
(§6) Polypropylene 96-well plates were used as pre-dilution plates. […] All dilution steps were done on a HamiltonSTAR robot.
(§7) These plates were used directly for the assay which was performed in a total volume of 13.55 μL.
A general note: Time-resolved FRET reads energy transfer from a long-lived donor to a nearby acceptor.

A further assay has as its target T3, BRD3 (Homo sapiens, UniProt Q15059).
T3 construct: 45 nM His-Brd3(20-477) or 45 nM His-Brd4(44-477)
Put plainly: TR-FRET in-vitro binding assay for BRD3. Particulars: Biochemical IC50 values, His-Brd3(20-477). The protocol: as §2, §3, §4, §5, §6, §7

A further assay deals with T4, CREBBP (Homo sapiens, UniProt Q92793).
T4 construct: 324 nM His-CREBBP(1081-1197) (custom production at Viva Biotech Ltd.)
T4 sequence (Q92793 1081-1197): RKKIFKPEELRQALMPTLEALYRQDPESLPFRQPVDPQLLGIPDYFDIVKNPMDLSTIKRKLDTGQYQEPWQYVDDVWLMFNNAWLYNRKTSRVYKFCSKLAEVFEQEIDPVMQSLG
Put plainly: AlphaScreen in-vitro binding assay for CREBBP. The following applies: Biochemical IC50 values, His-CREBBP(1081-1197). As to the method:
AlphaScreen In-Vitro Binding Assay for CREBBP
In order to assess bromodomain selectivity, we set up a binding assay using the bromodomain encoded by the CREBBP gene. […] Reactions were incubated at 30° C. for 35 minutes. Subsequently 4.5 μL per well detection mix (50 mM HEPES, pH 7.5, 0.005% Tween20, 0.02% BSA, 150 mM NaCl, 45 μg/ml Ni-chelate acceptor beads, 45 μg/mL streptavidin-donor beads) (Perkin Elmer)) were added. After 60 minutes incubation at room temperature, plates were measured in a Perkin Elmer EnVision multilabel reader. IC50 values were determined from percent inhibition values at different compound concentrations by non-linear regression analysis.
as §4
Test compounds were dissolved in DMSO (10 mM) and transferred into 1.4 mL flat bottom or V-shaped Matrix tubes carrying a unique 2D matrix. The stock solutions were stored at […] if not used immediately. For the test procedure the vials were defrosted and identified by a scanner whereby a working sheet was generated that guided the subsequent working steps. Compound dilutions were made in 96 well plates. This format enabled the assay of maximally 40 individual test compounds at 8 concentrations (single points) including 4 reference compounds, if desired (known BET inhibitors from the prior art, for this and other assays of the type disclosed herein). […]
Background: Alpha assays give light when donor and acceptor beads are brought close together.

T3 sequence (Q15059 20-477): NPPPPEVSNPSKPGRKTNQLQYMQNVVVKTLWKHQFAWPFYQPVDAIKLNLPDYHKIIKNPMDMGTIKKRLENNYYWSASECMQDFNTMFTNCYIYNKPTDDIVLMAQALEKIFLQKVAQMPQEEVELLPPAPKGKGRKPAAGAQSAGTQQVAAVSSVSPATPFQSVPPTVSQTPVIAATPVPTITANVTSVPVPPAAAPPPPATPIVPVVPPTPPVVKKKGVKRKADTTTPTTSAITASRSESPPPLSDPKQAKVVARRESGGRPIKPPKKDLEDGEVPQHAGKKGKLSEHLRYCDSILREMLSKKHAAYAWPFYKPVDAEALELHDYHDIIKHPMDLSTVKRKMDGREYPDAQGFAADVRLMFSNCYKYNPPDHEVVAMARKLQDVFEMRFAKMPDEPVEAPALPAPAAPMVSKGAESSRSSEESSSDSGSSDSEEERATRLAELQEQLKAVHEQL

Broadly, the GI50 is the concentration at which growth is held to half of that of the control. A lower GI50 goes with more potent growth inhibition. For orientation: IC50 means the concentration needed to halve the response being measured. For `CNc1cc(N2C(=O)c3c(c(C)nn3C3CC3)C2c2ccc(Cl)cc2)nn2c(C)nnc12` (racemic) [Example 113, 4-(4-chlorophenyl)-1-cyclopropyl-3-methyl-5-(3-methyl-8-(methylamino)-[1,2,4]triazolo[4,3-b]pyridazin-6-yl)-4,5-dihydropyrrolo-[3,4-c]pyrazol-6(1H)-one], the GI50 in the assay on THP-1 cells was found to be 112 nM; in the assay on K-562 cells (Homo sapiens, K562) it was 511 nM; in the assay on MV-4-11 cells, 84 nM. For the same compound, the IC (TGI) is 234 nM with THP-1 cells; greater than 10000 nM in the assay with K-562 cells (Homo sapiens, K562); 127 nM in the assay on MV-4-11 cells. The IC50 in assay [1] was 151 nM.

For `Cc1nn(C2CC2)c2c1C(c1ccc(Cl)cc1)N(c1cc(C)c(=O)n(C)c1)C2=O` (racemic) [Example 23, 4-(4-chlorophenyl)-1-cyclopropyl-5-(1,5-dimethyl-6-oxo-1,6-dihydropyridin-3-yl)-3-methyl-4,5-dihydropyrrolo-[3,4-c]pyrazol-6(1H)-one], the values for the IC50 at BRD2, at BRD3 and on CREBBP were 0.099 µM, 0.074 µM and 3.9 µM, respectively.

In the case of `Cc1nn(C2CC2)c2c1[C@H](c1ccc(Cl)cc1)N(c1cc(C)c3nnc(C)n3c1)C2=O` [Example 118, (S)-4-(4-chlorophenyl)-1-cyclopropyl-5-(3,8-dimethyl-[1,2,4]triazolo[4,3-a]pyridin-6-yl)-3-methyl-4,5-dihydropyrrolo-[3,4-c]pyrazol-6(1H)-one], the GI50 was 3160 nM with THP-1 cells; greater than 10000 nM in the assay on K-562 cells (Homo sapiens, K562); 1640 nM with MV-4-11 cells. For the same compound, in the assay with K-562 cells, the IC (TGI) was greater than 10000 nM. Besides, the IC50 at BRD3 and at CREBBP was greater than 37 µM in each case.
